The subject of experiment [1] is ɸ3T infection of B. subtilis 3610 plasmid-free permease variants. Description: Phage ɸ3T infection dynamics (optical density) in presence of arbitrium peptide. The class given is cell-based, Bacillus subtilis. The settings on record: ɸ3T m.o.i.=0.1 in LB. On the procedure:
Overnight culture grown in LB of the appropriate strain was diluted by a factor of 1 : 100 into fresh containing 0.1 mM MnCl2 and 5 mM MgCl2. The strains were then grown at 37 °C with shaking at 220 r.p.m. Upon reaching an of OD600=0.3, the strains infected with free ɸ3T at m.o.i.=0.1 and supplemented with 10 µM of the synthetic peptide SAIRGA. Optical density measurements at a wavelength of 600 nm were performed in a 96-well plate using a plate reader (PerkinElmer VICTOR Nivo 622 Multimode Plate Reader).
We wondered whether App is capable of transporting the signalling molecules of arbitrium, the second RRNPP system found in B. subtilis phages. The B. subtilis phage φ3T utilizes an arbitrium system with the small peptide SAIRGA to control the lysis-lysogeny and induction decisions [[17, 22]]. Increased signal concentration tilts the decision towards lysogeny. To further examine the impact of App and Opp on quorum-sensing-dependent activation of φ3T horizontal transfer, we utilized a plate reader to examine the phage infection dynamics by monitoring its impact on optical density during infection of the different variants in Lysogeny Broth (LB) medium.
Fig. 4. […] Growth curves are represented as the mean optical density (dark colour) and its error (light grey) as a function of time (minutes) taken using a plate-reader. […]

A further experiment has as its system App permease. The following applies: previous work; cited from earlier work. The text has this:
App was also as effective as Opp in uptaking the PapR pentapeptide, but not in importing the PhrC/F/P pentapeptides. Previous work has identified several App transported peptides, including the nonapeptide […] [[2, 50]].

The target in experiment [2] is T1, Opp permease (Opp-only strain O+;A-, expressing RapC, RapF or RapP) (Bacillus subtilis, UniProt P24141).
T1 construct: full deletion mutants of the App (Opp-only; O^+;A^-) and Opp (App-only; O^-;A^+) operons; endogenous in cells; host or cells: Bacillus subtilis 3610 (plasmid-free), Opp-only strains O+;A- (AES7204, AES7202, AES5524, AES7207)
Description: Co-culture PsrfA-3×yfp reporter response to added Phr peptide, Opp-only strain. The class given is cell-based. How it is done:
(§1) Flow cytometry was performed to quantify gene expression at the single-cell level, using a Beckman-Coulter Gallios flow-cytometer equipped with four lasers (405 nm, 488 nm co-linear with 561 nm, 638 nm). The emission filters used were as follows: BFP – 450/50, YFP – 525/40, mCherry – 620/30. Two methods were used to distinguish between co-cultured cells. Strains coding for rapP where transformed by plasmids carrying either an mCherry or mTag2-BFP genes under a constitutive promoter. For the rest of the strains, the same constructs were integrated into the bacterial genome at the lacA locus. YFP levels were measured relative to a set voltage, which was approximately set such that a value of 1 will be given to autofluorescence of strain PY79 in SMM medium.
(§2) Cells were grown to OD600 <0.1, in SMM medium containing trace elements and glucose, then diluted by a factor of 10^6 or 10^7 into fresh SMM medium and grown for about 16 h in exponential phase. In co-culture gene-expression experiments, each strain was grown from a single colony in SMM to OD600 <0.1 or diluted to 0.1 prior to strain mixing. The two strains were mixed at equal volumes and then diluted by a factor of 10^6 or 10^7 in fresh SMM medium. Samples were taken from cultures at several time-points. At each time point OD600nm was measured using a spectrophotometer and fluorescence was measured using a flow cytometry. […]

Experiment [3] relates to App permease (App-only strain O-;A+, expressing RapC, RapF or RapP). As to the kind of experiment: Co-culture PsrfA-3×yfp reporter response to added Phr peptide, App-only strain. The class given is cell-based, Bacillus subtilis. The following applies: co-culture with Opp-only strain, SMM, 3 h after peptide addition, PhrP increase at concentrations higher than 1 µM. How it is done:
as §1, §2

The target in experiment [4] is T2, Opp permease (Opp-only strain O+;A-, AES7207, expressing PlcR) (Bacillus subtilis, UniProt P24141).
T2 construct: full deletion mutants of the App (Opp-only; O^+;A^-) and Opp (App-only; O^-;A^+) operons; endogenous in cells; host or cells: Bacillus subtilis 3610 (plasmid-free), Opp-only strains O+;A- (AES7204, AES7202, AES5524, AES7207)
Description: Co-culture PplcA-3×yfp reporter of PlcR receivers, Opp-only strain. The class given is cell-based. On the procedure: as §1
(§3) Cells were grown to OD600 <0.1, in SMM medium containing trace elements and glucose, then diluted by a factor of 10^6 or 10^7 into fresh SMM medium and grown for about 16 h in exponential phase. In co-culture gene-expression experiments, each strain was grown from a single colony in SMM to OD600 <0.1 or diluted to 0.1 prior to strain mixing. […] At each time point OD600nm was measured using a spectrophotometer and fluorescence was measured using a flow cytometry. […]
(§4) Fig. 8. […] YFP levels were measured for single cells using flow cytometry 3 h after the peptide was added. […] Biological repeats at the same concentrations were measured on different days. […]

The target of experiment [5] is T3, App permease, App^3610 allele (App-only strain O-;A+, AES7075, expressing PlcR) (Bacillus subtilis, UniProt P42061).
T3 construct: full deletion mutants of the App (Opp-only; O^+;A^-) and Opp (App-only; O^-;A^+) operons; endogenous in cells; host or cells: Bacillus subtilis 3610 (plasmid-free), App-only strain O-;A+ (AES7075)
As to the kind of experiment: Co-culture PplcA-3×yfp reporter of PlcR receivers, App-only strain (App3610). Type of experiment: cell-based. On the procedure: as §1, §3, §4

Experiment [6] concerns App permease (App-only strain O-;A+, AES7410, expressing RapA). As to the kind of experiment: Co-culture PspoIIG-3×yfp early sporulation reporter, RapA strain, App-only. The settings on record: maximal peptide concentration, SMM with very low glucose, 3 h. The class given is cell-based, Bacillus subtilis. On the procedure:
as §1
(§5) Cells were grown to OD600 <0.1, in SMM medium containing trace elements and glucose, then diluted by a factor of 10^6 or 10^7 into fresh SMM medium and grown for about 16 h in exponential phase. […] At each time point OD600nm was measured using a spectrophotometer and fluorescence was measured using a flow cytometry. […]
(§6) Fig. 5. […] ON cells are determined as the cells that have expressed P spoIIG-3 ×yfp 10-fold higher than background. […] YFP levels were measured for single cells using flow cytometry 3 h after the peptide was added to co-culture of both strains, App and Opp. […]

Experiment [7] has as its system Opp permease (Opp-only strain O+;A-, AES7413, expressing RapA). As to the kind of experiment: Co-culture PspoIIG-3×yfp early sporulation reporter, RapA strain, Opp-only. The following applies: 10 µM peptide, SMM with very low glucose, 3 h, ON = 10-fold higher than background. The class given is cell-based, Bacillus subtilis. How it is done:
as §1, §5, §6

We go through seven substances from PMC10569065, “Major distinctions between the two oligopeptide permease systems of Bacillus subtilis with respect to signaling, development and evolutionary divergence” (Microbiology, 2023).

Where no end group is shown, it is not given here.

T1 sequence (P24141 21-545): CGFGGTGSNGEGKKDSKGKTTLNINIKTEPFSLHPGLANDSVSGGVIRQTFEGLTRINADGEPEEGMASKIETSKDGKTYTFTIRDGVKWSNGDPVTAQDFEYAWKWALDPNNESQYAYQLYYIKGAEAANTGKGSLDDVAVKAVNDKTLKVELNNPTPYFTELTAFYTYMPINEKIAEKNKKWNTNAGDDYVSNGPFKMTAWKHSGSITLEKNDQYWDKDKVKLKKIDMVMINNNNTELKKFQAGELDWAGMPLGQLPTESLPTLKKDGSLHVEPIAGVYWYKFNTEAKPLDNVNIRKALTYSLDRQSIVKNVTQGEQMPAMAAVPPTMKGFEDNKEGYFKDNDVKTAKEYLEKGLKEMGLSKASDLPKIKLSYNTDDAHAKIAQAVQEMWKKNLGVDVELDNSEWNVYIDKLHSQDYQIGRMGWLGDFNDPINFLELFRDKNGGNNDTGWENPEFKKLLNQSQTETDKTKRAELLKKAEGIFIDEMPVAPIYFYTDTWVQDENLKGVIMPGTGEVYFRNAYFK
T2 sequence (P24141 21-545): as above
T3 sequence (P42061 24-543): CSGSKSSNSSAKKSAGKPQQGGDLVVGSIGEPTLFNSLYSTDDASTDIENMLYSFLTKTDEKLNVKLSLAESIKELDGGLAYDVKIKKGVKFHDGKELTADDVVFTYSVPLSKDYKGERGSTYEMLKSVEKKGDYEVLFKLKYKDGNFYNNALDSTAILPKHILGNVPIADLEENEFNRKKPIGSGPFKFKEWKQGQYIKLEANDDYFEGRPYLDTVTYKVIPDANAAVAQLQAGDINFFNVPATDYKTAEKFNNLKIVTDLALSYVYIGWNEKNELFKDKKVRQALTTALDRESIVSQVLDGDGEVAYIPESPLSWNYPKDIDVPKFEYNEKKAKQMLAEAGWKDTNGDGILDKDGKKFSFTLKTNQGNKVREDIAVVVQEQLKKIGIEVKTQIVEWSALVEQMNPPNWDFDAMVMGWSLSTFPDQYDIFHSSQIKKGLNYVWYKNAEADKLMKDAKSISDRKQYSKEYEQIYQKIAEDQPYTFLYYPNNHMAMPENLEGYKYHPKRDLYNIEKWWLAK

For “SAIRGA [synthetic arbitrium hexapeptide of B. subtilis phage φ3T]”, the “optical density on ɸ3T infection with peptide, App-only (O-;A+)” value in experiment [1] (AES6372, 10 µM peptide) is “marked reduction in optical density”. Further, in experiment [1] (WT DS2569, 10 µM peptide added at OD600=0.3, plate reader OD600), the “lysis on ɸ3T infection with peptide, WT (O+;A+)” value is listed as “did not lyse”.

With “FLEEI [pentapeptide reported in previous work as transported by App]”, in the experiment with App permease, the “transport by App” value was “able to transport”.

The term EC50 denotes the concentration giving half of the maximal effect. Take ERGMT [PhrC]: in experiment [2], the EC50 was under 10 nM. The “YFP levels (PsrfA-3×yfp) with increasing peptide concentrations, App-only strains” value in experiment [3] was “marginally increased”.

With LPFEF [penta-PapR], the results for the EC50 in experiment [4] and in experiment [5] were 650 nM and 290 nM, respectively. QRGMI [PhrF]: the EC50 in experiment [2] was under 10 nM. Also, the “YFP levels (PsrfA-3×yfp) with increasing peptide concentrations, App-only strains” value in experiment [3] is reported as “marginally increased”. With “ARNQT [PhrA, synthetic PhrA signalling pentapeptide (ARNQT) of the RapA-PhrA system]”, the “fraction of sporulating cells (ON cells, PspoIIG-3×yfp)” value in experiment [6] stood at 0.2%. For the same substance, in experiment [7], the “percentage of cells with high YFP levels (ON cells, PspoIIG-3×yfp)” value is ~ 20%.

Consider “FGFG [tetrapeptide reported in previous work as transported by App]”, for which the “transport by App” value in the experiment with App permease is given as “able to transport”.
